Results published in patent US20260206761A1, “HETEROARYL-TRIAZOLE COMPOUNDS AS PESTICIDES” (Bayer Aktiengesellschaft, priority 2019, published 2026).

What was measured:
Assay type in all cases: in vivo
[1] = test system: adult engorged female ticks (Rhipicephalus microplus); test: Rhipicephalus (Boophilus) microplus injection test; details: 168 h, egg deposition after 7 days, read-out: activity (efficacy: infertile eggs); for pest or weed control at 4 pg: application rate 4 pg/animal; for pest or weed control at 0.02 mg: application rate 20 μg/animal
Procedure, shortened: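 Compound in DMSO (10 mg per 0.5 mL, then diluted with DMSO to test concentration); 1 μL injected into the abdomen of each of five engorged females, then held in a climate chamber. Fertile egg deposition checked at 7 days; efficacy 100% = all eggs infertile, 0% = all fertile.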

[2] = test system: adult cat fleas (Ctenocephalides felis); test: Ctenocephalides felis in-vitro contact test, adult cat flea; details: application rate 5 μg/cm^2 (=500 g/ha), after 48 hours, read-out: activity (efficacy: fleas dead or moribund)
Procedure, shortened: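 Efficacy, as % of fleas dead or moribund, was read 48 h after 5-10 adult cat fleas were confined in glass tubes whose walls carried dried compound film (900 ppm, […]). Fleas failing to escape upward from a 45-50° C plate within 5 min counted as dead or moribund.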

[3] = test system: adult unfed cat fleas (Ctenocephalides felis); test: Ctenocephalides felis oral test; details: 48 h, read-out: activity (mortality)
Procedure, shortened: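 About 20 adult unfed fleas fed through parafilm on cattle blood containing compound (DMSO stock diluted in blood), blood held at 37 °C and fleas at room temperature. Mortality (%) scored after 2 days.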

[4] = test system: larvae of the banded cucumber beetle (Diabrotica balteata); test: Diabrotica balteata spray test; details: 168 h, after 7 days, read-out: activity (efficacy: seedlings grown); for pest or weed control at 100 g/ha: application rate 100 g/ha (=32 pg/well); for pest or weed control at 500 g/ha: application rate 500 g/ha (=160 pg/well)
Procedure, shortened: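 Read-out is % efficacy at day 7, 0% meaning no seedling growth and 100% growth equal to uninfested untreated controls. Test solutions (acetone/DMF concentrate diluted with water carrying 1000 ppm emulsifier) were sprayed onto 1-day-germinated wheat seeds, 5 per well, before infestation with 10-20 larvae.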

[5] = test system: green peach aphid (Myzus persicae); test: Myzus persicae oral test; details: 120 h, application rate 4 ppm, after 5 days
Procedure, shortened: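 Readout: % mortality at day 5, where 100% = all aphids dead and 0% = none dead. Feeding via parafilm membrane over compound in IPL41 medium (33%+15% sugar); mixed-age population. Stock in acetone (1:100 w/w), water-diluted.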

[6] = test system: larvae of the southern green stink bug (Nezara viridula); test: Nezara viridula spray test; details: 96 h, after 4 days; for mortality at 100 g/ha: application rate 100 g/ha
Procedure, shortened: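 Larva-infested barley (Hordeum vulgare) plants received a spray of test solution prepared from an acetone/DMF concentrate diluted in emulsifier-containing water (1000 ppm). Percent kill read 4 days later; 0% means no stink bugs dead.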

[7] = test system: Aedes aegypti strain MONHEIM; test: Aedes aegypti test (AEDSAE surface treatment & contact assay); details: 24 hours after contact, read-out: efficacy (mortality); for mortality at 4 mg/m2: surface concentration 4 mg/m^2, exposure 30 minutes; for mortality at 20 mg/m2: surface concentration 20 mg/m^2, exposure 30 minutes
Procedure, shortened: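 Percent mortality was read 24 h after adult MONHEIM mosquitoes were held for 30 min on a tile treated with compound. Compound applied from acetone solution (2 mg/ml) containing 2000 ppm rapeseed oil methyl ester, after evaporation.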

[8] = test system: Anopheles funestus strain FUMOZ-R; test: Anopheles funestus test (ANPHFU surface treatment & contact assay); details: 24 hours after contact, read-out: efficacy (mortality); for mortality at 4 mg/m2: surface concentration 4 mg/m^2, exposure 30 minutes; for mortality at 20 mg/m2: surface concentration 20 mg/m^2, exposure 30 minutes
Experimental: Anopheles funestus Test (ANPHFU Surface Treatment & Contact Assay)
(§1) Solvent: Aceton+2000 ppm rapeseed oil methyl ester (RME)
In order to produce a sufficient, active ingredient containing solution it is necessary to solve the test compound in the solvent-mix (acetone at 2 mg/ml/RME 2000 ppm). This solution is pipetted onto a glazed tile and after evaporation of the acetone, adult mosquitoes of the species Anopheles funestus strain FUMOZ-R (Hunt et al., Med. Vet. Entomol. 2005 September; 19(3): 271-275) are placed onto the dried surface. The exposure time is 30 minutes. Mortality in percent (%) is determined 24 hours after contact of the insects to the treated surface. 100% mortality means that all tested insects are dead, whereas 0% means that no insect died.

[9] = test system: Blattella germanica strain PAULINIA; test: whole plant or invertebrate; details: read-out: efficacy (mortality)
Experimental: Blattella germanica Test (BLTTGE Surface Treatment & Contact Assay)
as §1
In order to produce a sufficient, active ingredient containing solution it is necessary to solve the test compound in the solvent-mix (acetone at 2 mg/ml/RME 2000 ppm). This solution is pipetted onto a glazed tile and after evaporation of the acetone, adult animals of the species Blattella germanica strain PAULINIA are placed onto the dried surface. The exposure time is 30 minutes.
Mortality in percent (%) is determined 24 hours after contact of the insects to the treated surface. 100% mortality means that all tested insects are dead, whereas 0% means that no insect died.

[10] = test system: adult brown dog ticks (Rhipicephalus sanguineus); test: Rhipicephalus sanguineus in-vitro contact test, adult brown dog ticks; details: after 48 hours, read-out: activity (efficacy: ticks dead or moribund); for pest or weed control at 100 g/ha: application rate 1 pg/cm^2 (=100 g/ha)
Procedure, shortened: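 Efficacy is % of adult ticks dead or moribund 48 h after confinement at room temperature in tubes wall-coated from acetone (5 μg/cm² at 900 ppm). Scoring by heat challenge at 45-50 °C up to 5 min; immotile or uncoordinated ticks failing to climb count as affected.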

[11] = test system: green peach aphid (Myzus persicae); test: Myzus persicae spray test; details: 120 h, application rate 500 g/ha, after 5 days
Procedure, shortened: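 Chinese cabbage leaf disks carrying all instars of M. persicae sprayed with compound in acetone/DMF, diluted in water with 1000 ppm alkylarylpolyglycol ether emulsifier. Percent mortality scored after 5 days (100% = all aphids killed).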

[12] = test system: two spotted spidermite (Tetranychus urticae); test: Tetranychus urticae spray test OP-resistant; details: 144 h, after 6 days
Experimental: Tetranychus urticae—Spray Test OP-Resistant
Solvent: 78.0 parts by weight acetone • 1.5 parts by weight dimethylformamide
Emulsifier: alkylarylpolyglycol ether
To produce a suitable preparation of active compound, 1 part by weight of active compound is mixed with the stated amount of solvents and is diluted with water, containing an emulsifier concentration of 1000 ppm, to the desired concentration. Further test concentrations are prepared by dilution with emulsifier containing water.
French bean (Phaseolus vulgaris) leaf disks infected with all instars of the two spotted spidermite (Tetranychus urticae), are sprayed with a preparation of the active ingredient of the desired concentration.
After 6 days mortality in % is determined. 100% means all spider mites have been killed and 0% means none of the spider mites have been killed.

[13] = test system: Culex quinquefasciatus strain P00; test: Culex quinquefasciatus test (CULXFA surface treatment & contact assay); details: 24 hours after contact, read-out: efficacy (mortality)
Procedure, shortened: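 Compound in acetone (2 mg/ml) with 2000 ppm rapeseed oil methyl ester, dried onto glazed tile. Adult mosquitoes exposed to the treated surface for 30 min. Percent mortality scored 24 h after contact.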

[14] = test system: Rhipicephalus microplus larvae (strain Parkhurst, resistant against synthetic pyrethroids); test: Rhipicephalus (Boophilus) microplus in-vitro contact test, larval cattle tick; details: after 48 hours, read-out: activity (efficacy: larvae dead or moribund)
Procedure, shortened: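 Larvae (20-50 per tube) exposed to dry compound film on glass tube walls, 5 μg/cm^2 at 900 ppm, applied from acetone. After 48 h at 27° C./85% RH, tubes tapped and negative geotaxis scored; efficacy as percent dead or moribund larvae.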

[15] = test system: fall armyworm larvae (Spodoptera frugiperda); test: Spodoptera frugiperda spray test; details: 168 h, read-out: activity (mortality)
Procedure, shortened: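 Larvae of fall armyworm placed on dried maize leaf sections previously sprayed with emulsified compound (acetone/DMF solvent, water with 1000 ppm emulsifier). Percent of caterpillars killed recorded on day 7, 0–100% scale.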

Compound	pest or weed control at 4 pg [1] [%]	pest or weed control at 5 µg/cm2 [2] [%]	mortality at 100 ppm [3] [%]	pest or weed control at 100 g/ha [4] [%]	mortality at 4 ppm [5] [%]	mortality at 100 g/ha [6] [%]	mortality at 4 mg/m2 [7] [%]	mortality at 20 mg/m2 [7] [%]	mortality at 4 mg/m2 [8] [%]	mortality at 20 mg/m2 [8] [%]	pest or weed control at 0.02 mg [1] [%]	pest or weed control at 100 g/ha [10] [%]	pest or weed control at 500 g/ha [4] [%]	also measured
CC(NC(=O)c1cc(Cl)cc(S(C)(=O)=O)c1)c1nc(Br)nn1-c1ncccn1 (centres unmarked) [I-34]	100	90	100	100	100	100	80 to 100	80 to 100	80 to 100	80 to 100				mortality at 20 mg/m2 [9]: 80 to 100%
Cc1nc([C@H](C)NC(=O)c2csc(Cl)c2)n(-c2ncccn2)n1 [II-24]	100	100					80 to 100	80 to 100	80 to 100	80 to 100	100	100	80	pest or weed control at 5 µg/cm2, 500 g/ha ([10]; application rate 5 μg/cm^2 (=500 g/ha)): 100%; mortality at 500 g/ha [11]: 90%; mortality at 500 g/ha ([12]; application rate 500 g/ha): 90%; mortality at 4 mg/m2 ([13]; surface concentration 4 mg/m^2, exposure 30 minutes): 80 to 100%; mortality at 20 mg/m2 ([13]; surface concentration 20 mg/m^2, exposure 30 minutes): 80 to 100%
CCS(=O)(=O)c1cc(C(=O)N[C@@H](C)c2ncnn2-c2ccc(C#N)cn2)cc(C(F)(F)F)c1 [II-33]	100		100	100	100	100	80 to 100	80 to 100			100	80	100	pest or weed control at 100 g/ha ([14]; application rate 1 pg/cm^2 (=100 g/ha)): 100%; pest or weed control at 500 g/ha ([14]; application rate 5 pg/cm^2 (=500 g/ha)): 100%; mortality at 500 g/ha ([6]; application rate 500 g/ha): 100%; mortality at 100 g/ha [15]: 100%; mortality at 500 g/ha [15]: 83%; mortality at 100 g/ha ([12]; application rate 100 g/ha): 90%
